Broadly, the mortality is the percentage killed. Higher therefore signals a strong lethal effect.

The subject of this data set is Rice Green Leaf Hoppers (Nephoteftix Virescens). Briefly: Activity against rice green leaf hoppers, foliar spray on rice plants. The note with it: 300 ppm; after 72 hours. It is filed as in vivo. Here is the method:
Leaf hopper and plant hoppers adults used for bioassay were obtained from a colony maintained continuously under laboratory conditions. For testing purposes, the test compound was diluted in 300 ppm (wt compound:vol diluent) in a 1:1 mixture of acetone:water, plus 0.1% EL 620 surfactant.
Hopper activity was evaluated using the foliar spray technique. Pofted rice plants (2-3 week old, Variety TN-1) were cleaned and dried prior to application. All plants were treated inside the fume hood using DeVilbiss atomizer at 25 psi with a spray volume of 5 ml/plant. To ensure uniform spray distribution, plants were placed in a rotating flat form inside the fume hood. Treated plants were then placed inside the holding room and allowed to dry for 2 hours. Each plant was caged using Mylar cages (4 inches diameter×19 inches in height) and inoculated with 10 adults hoppers. All test plants were held under continuous light and a temperature of about 28° C. for duration of the assay. Percent mortality was observed after 72 hours.

For `Cc1ccc(-c2ccc(S(=O)(=O)NCc3ccnc4ccccc34)cc2)c(Cl)c1` [I-32], the mortality is on record as ≥ 75%.
